Measured values taken from patent US11542304B2, “Multimeric bicyclic peptide ligands” (BicycleTx Limited, priority 2018, dated 2023).

Experiments:
MC38 syngeneic tumors = experiment: In vivo efficacy in MC38 syngeneic tumors in C57BL/6J B-h4-1BB humanized mice; settings: 20 or 30 mg/kg i.v. QAD × 6; compared to CD137 monoclonal antibody agonist; FIG. 7
Description: The MC38 murine colon carcinoma cell line was purchased from Shunran Shanghai Biological Technology Co., Ltd. The cells will be maintained in vitro as monolayer culture in Dulbecco's Modified Eagle's medium (DMEM) supplemented with 10% heat inactivated fetal calf serum, 100 U/mL penicillin and 100 μg/mL streptomycin at 37° C. in an atmosphere of 5% CO2. The tumor cells will be routinely subcultured twice weekly by trypsin-EDTA treatment. Cells growing in an exponential growth phase will be harvested and counted for tumor inoculation. 6-8 week old female C57BL/6J B-h4-1BB humanized mice were subcutaneously injected (in the flank) with MC38 tumor cells (5×10^5) with 0.1 mL PBS for tumor development. Tumor-bearing animals were randomly enrolled into six study groups when the mean tumor size reached approximately 113 mm^3 (Study 1) or 107 mm^3 (Study 2). The test and positive control articles were administrated to the tumor-bearing mice according to predetermined regimens as shown below.
Test articles were formulated in aqueous vehicle (25 mM Histidine, 10% sucrose pH=7) and administered intravenously or intraperitoneally. CD137 monoclonal antibody agonist was administered by intraperitoneal injection in 0.9% saline.
Tumor volume was measured three times a week in two dimensions using a caliper, and the volume was expressed in mm3 using the formula: V=0.5a×b2 where a and b were the long and short diameters of the tumor, respectively. Results are represented by mean and the standard deviation (Mean±SD).
In study 2, mice were sacrificed 21 days after treatment initiation and tumors were harvested for T-cell analysis by flow cytometry. Tumor were cut into small pieces and filtered through a 70 micrometer filter. Lymphocytes were isolated using Histopaque 1083 and resuspended in RPMI 1640 supplemented with 10% fetal bovine serum. Lymphocytes were stained with a cell viability dye (Zombie NIR, Biolegend, #423106) and a panel of antibodies including anti-mouse CD45 (Biolegend, #103138), anti-mouse CD3 (Biolegend, #100328), anti-mouse CD4 (Biolegend, #100438), anti-mouse CD8 (Biolegend, #100759). Stained cells were analysed by Attune N×T Flow Cytometer. T-cell results are expressed as % of CD3+ cells among CD45+ cells. CD8+ T-cell results are expressed as % of CD8+ cells among CD45+CD3+ cells. CD4+ T-cell results are expressed as % of CD4+ cells among CD45+CD3+ cells. Results are represented by mean and the standard deviation (Mean±SD) and the individual values.
Statistical analysis: Data was analyzed using 2way ANOVA or ordinary One-way ANOVA with Dunnett's test for multiple comparisons, and P<0.05 was considered to be statistically significant. Both statistical analysis and biological observations are taken into consideration. ***p<0.001, **p<0.01, *p<0.05.

CD137 [1] = target: T1, CD137 (Homo sapiens, UniProt Q07011); experiment: CD137 Promega reporter cell activity assay (NF-κB luciferase in Jurkat cells)
T1 sequence (Q07011 24-255): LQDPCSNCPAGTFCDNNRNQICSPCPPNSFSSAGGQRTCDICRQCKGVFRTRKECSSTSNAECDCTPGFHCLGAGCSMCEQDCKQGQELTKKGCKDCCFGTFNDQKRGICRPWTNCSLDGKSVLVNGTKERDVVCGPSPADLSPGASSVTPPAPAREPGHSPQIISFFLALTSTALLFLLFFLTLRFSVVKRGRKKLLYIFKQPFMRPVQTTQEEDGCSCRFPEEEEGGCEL
Description: CD137 binding multimers were evaluated for CD137 using a Reporter cell activity assay that uses NF-κB luciferase luminescence as a read-out of CD137 activation in Jurkat cells. […] Samples were diluted at concentration expected to give the maximum fold induction and then titrated down in 1/3 dilution series or 1/10 dilution series in a sterile 96 well-plate. […] 50 μl cells were added per well to white cell culture plates.
Cells were co-incubated together with agonists for 6 h at 37° C., 5% CO2. After 6 h Bio-Glo™ was thawed and the assay developed at room-temperature. 75 ul Bio-Glo™ was added per well and incubated for 5-10 min. Luciferase signal was read on a Pherastar plate-reader using MARS program. Data was analysed by transforming the data to x=log (X), then plotting log (agonist) vs. response variable slope (4 parameters) to calculate EC50 values.

[2] = test system: melanoma patient tumour samples; experiment: Ex vivo human tumour cell kill assay (3D spheroid culture); settings: 48 hours
Description: Two frozen, dissociated melanoma patient tumour samples were purchased from Folio Conversant. Cells were thawed quickly at 37° C. and pipetted into 10 mL of Wash Medium [DMEM/F12+1× Penicillin/Streptomycin+50 μg/mL Gentamycin+100 μg/mL G418+100 μg/mL Hygromycin+1× Insulin-Transferrin-Selenium (ITS)+10 mM HEPES] with 1 mg/mL DNaseI added fresh. Cell counts were performed using a haemocytometer and a 1:2 dilution with 0.04% Trypan blue. Cells were spun down and resuspended in Growth Medium [EmbryoMax DMEM+10% heat-inactivated FBS+1× Penicillin/Streptomycin+50 μg/mL Gentamycin+1× GlutaMAX+1 mM Sodium pyruvate+1×ITS+0.4% BSA+4.5 g/L glucose+2.3 g/L sodium bicarbonate+10 mM HEPES+10 ng/mL basic fibroblast growth factor (bFGF)+20 ng/mL epidermal growth factor (EGF)] at 5×10^5 cells/mL. Cells were magnetized as described in the N3D Biosciences manufacturer's protocol. Briefly, NanoShuttle (NS) is added at 1 μL to 1×10^4 cells and mixed in by pipetting. […] Flow cytometry panels used in this experiment analysed the number of lymphocytes and tumour cells present on Days 0 and 2. Tumour cell killing was determined by the decrease in the number of CD45 negative cells in the treated wells versus the untreated control (FIG. 12)—significance was calculated using a 2-way ANOVA.

CD137 [3] = target: T1, CD137; experiment: CD137 reporter cell activity washout assay; format: cell-based; set-up: host or cells: Jurkat cells; settings: 10 nM, exposure 30, 60 or 120 minutes, total 6 hours; FIG. 13
Description: Jurkat cells engineered to overexpress CD137 and express a luciferase gene under the NF-κB promoter were purchased from Promega. The reporter cells were incubated with 10 nM of CD137 agonists for the indicated times at 37° C. in RPMI1640 media with 1% FBS. After either 30, 60, or 120 minutes, cells were washed in an excess of culture media and resuspended in 75 μL of fresh media. A no washout condition was also included. All washout conditions were performed in duplicate. Cells then continued to incubate for a total of 6 hours (an additional 5.5, 5, or 4 hours respective to exposure times). After incubation, 75 μL of Bio-Glo reagent (Promega) was added to each well and allowed to equilibrate for 10 minutes at room temperature. Luminescence was read on the Clariostar plate reader (BMG LabTech). Fold induction was calculated by dividing the luminescence signal by background wells (reporter cells with no agonist added). The percent of the maximum fold induction was calculated by dividing the fold induction of the washout time by the fold induction of the no washout condition and multiplying by 100.

[4] = test system: Pan T-cells (isolated from human PBMCs); experiment: T-cell cytokine release assay; format: cell-based; settings: anti-CD3 stimulated T cells, 48 hours; FIG. 14
Description: Healthy human buffy coat was purchased from the Sylvan N. Goldman Oklahoma Blood Institute and shipped fresh. Peripheral blood mononuclear cells (PBMCs) were isolated by Ficoll density gradient centrifugation. Red blood cells were lysed with ACK (Ammonium-Chloride-Potassium) lysis buffer. Pan T-cells were then isolated from total PBMCs using negative magnetic bead selection (Miltenyi MACS human Pan-T cell isolation kit). Pan T-cells were then plated on anti-CD3 coated 96-well plates (0.5 μg/mL) in culture media (RPMI1640 with 10% FBS) plus or minus compounds. Supernatant from cultures was collected after 24 and 48 hours. Cytokine [i.e., interleukin-2 (IL-2), interferon gamma (IFNγ)] release in supernatant was measured by HTRF assay (CisBio) according to the kit's instructions. HTRF assay plates were read on a Clariostar plate reader (BMG Labtech) at 665 nm and 620 nm. Data was analyzed and extrapolated to a standard curve according to the HTRF kit instruction in Prism and Excel. Cytokine release fold change was calculated by dividing the pg/mL of cytokine detected by background cytokine released (CD3 stimulation alone). Data was graphed in Prism as the mean of replicates with standard deviation error bars.

[5] = Pharmacokinetics of Bicycle multimers in CD-1 mice; settings: 5 mg/kg IV, male CD-1 mice; FIGS. 5A and 5B
Description: Male CD-1 mice were dosed with 5 mg/kg of each Bicycle multimer formulated in 25 mM Histidine HCl, 10% sucrose pH 7 via tail vein injection. Serial bleeding (about 80 μL blood/time point) was performed via submandibular or saphenous vein at each time point. All blood samples were immediately transferred into prechilled microcentrifuge tubes containing 2 μL K2-EDTA (0.5M) as anti-coagulant and placed on wet ice. Blood samples were immediately processed for plasma by centrifugation at approximately 4° C., 3000 g. The precipitant including internal standard was immediately added into the plasma, mixed well and centrifuged at 12,000 rpm, 4° C. for 10 minutes. The supernatant was transferred into pre-labeled polypropylene microcentrifuge tubes, and then quick-frozen over dry ice. The samples were stored at 70° C. or below as needed until analysis. 7.5 μL of the supernatant samples were directly injected for LC-MS/MS analysis using an Orbitrap Q Exactive in positive ion mode to determine the concentrations of Bicycle multimer. Plasma concentration versus time data were analyzed by non-compartmental approaches using the Phoenix WinNonlin 6.3 software program. C0, Cl, Vdss, T1/2, AUC(0-last), AUC(0-inf), MRT(0-last), MRT(0-inf) and graphs of plasma concentration versus time profile were reported.

Structure (SMILES): CCCC[C@@H]1NC(=O)[C@H](Cc2ccc(O)cc2)NC(=O)[C@@H]2CCCN2C(=O)[C@H](CC(=O)O)NC(=O)[C@H](C)NC(=O)[C@H](Cc2ccccc2)NC(=O)[C@@H]2CSCCC(=O)N3CN(CN(C3)C(=O)CCSC[C@@H](C(=O)N[C@@H](C)C(N)=O)NC1=O)C(=O)CCSC[C@H](NC(=O)[C@H](C)NC(C)=O)C(=O)N[C@@H]([C@@H](C)CC)C(=O)N[C@@H](CCC(=O)O)C(=O)N[C@@H](CCCCNC(=O)CCc1cn(CCOCCOCCOCCOCCOCCOCCOCCOCCOCCOCCOCCOCCOCCOCCOCCOCCOCCOCCOCCOCCOCCOCCOCCNC(=O)CCOCC(COCCC(=O)NCCOCCOCCOCCOCCOCCOCCOCCOCCOCCOCCOCCOCCOCCOCCOCCOCCOCCOCCOCCOCCOCCOCCOCCn3cc(CCC(=O)NCCCC[C@@H]4NC(=O)[C@H](CCC(=O)O)NC(=O)[C@H]([C@@H](C)CC)NC(=O)[C@@H](NC(=O)[C@H](C)NC(C)=O)CSCCC(=O)N5CN6CN(C5)C(=O)CCSC[C@H](NC(=O)[C@H](Cc5ccc(O)cc5)NC(=O)[C@H](CCC(N)=O)NC(=O)CNC4=O)C(=O)N[C@@H](Cc4ccccc4)C(=O)N[C@@H](C)C(=O)N[C@@H](CC(=O)O)C(=O)N4CCC[C@H]4C(=O)N[C@@H](Cc4ccc(O)cc4)C(=O)N[C@@H](CCCC)C(=O)N[C@H](C(=O)N[C@@H](C)C(N)=O)CSCCC6=O)nn3)(COCCC(=O)NCCOCCOCCOCCOCCOCCOCCOCCOCCOCCOCCOCCOCCOCCOCCOCCOCCOCCOCCOCCOCCOCCOCCOCCn3cc(CCC(=O)NCCCC[C@@H]4NC(=O)[C@H](CCC(=O)O)NC(=O)[C@H]([C@@H](C)CC)NC(=O)[C@@H](NC(=O)[C@H](C)NC(C)=O)CSCCC(=O)N5CN6CN(C5)C(=O)CCSC[C@H](NC(=O)[C@H](Cc5ccc(O)cc5)NC(=O)[C@H](CCC(N)=O)NC(=O)CNC4=O)C(=O)N[C@@H](Cc4ccccc4)C(=O)N[C@@H](C)C(=O)N[C@@H](CC(=O)O)C(=O)N4CCC[C@H]4C(=O)N[C@@H](Cc4ccc(O)cc4)C(=O)N[C@@H](CCCC)C(=O)N[C@H](C(=O)N[C@@H](C)C(N)=O)CSCCC6=O)nn3)COCCC(=O)NCCOCCOCCOCCOCCOCCOCCOCCOCCOCCOCCOCCOCCOCCOCCOCCOCCOCCOCCOCCOCCOCCOCCOCCn3cc(CCC(=O)NCCCC[C@@H]4NC(=O)[C@H](CCC(=O)O)NC(=O)[C@H]([C@@H](C)CC)NC(=O)[C@@H](NC(=O)[C@H](C)NC(C)=O)CSCCC(=O)N5CN6CN(C5)C(=O)CCSC[C@H](NC(=O)[C@H](Cc5ccc(O)cc5)NC(=O)[C@H](CCC(N)=O)NC(=O)CNC4=O)C(=O)N[C@@H](Cc4ccccc4)C(=O)N[C@@H](C)C(=O)N[C@@H](CC(=O)O)C(=O)N4CCC[C@H]4C(=O)N[C@@H](Cc4ccc(O)cc4)C(=O)N[C@@H](CCCC)C(=O)N[C@H](C(=O)N[C@@H](C)C(N)=O)CSCCC6=O)nn3)nn1)C(=O)NCC(=O)N[C@@H](CCC(N)=O)C(=O)N[C@@H](Cc1ccc(O)cc1)C(=O)N2 [BCY7838]
- anti-tumor activity (tumor volume), Study 1 (MC38 syngeneic tumors): elicits a range of anti-tumor activities
- Average Fold EC50 Improvement relative to CD137L (CD137 [1]; Average EC50 for CD137L = 14.2 nM): 0.73
- Average Relative Fold Induction relative to CD137L (CD137 [1]; Average fold induction for CD137L = 4.0): 2.19
- lymphocyte numbers (live CD45 positive cells) ([2]; FIG. 12B): no significant difference between treatments on lymphocyte numbers
- tumour cell death (live CD45 negative cells) ([2]; in one melanoma patient sample, but not the other, FIG. 12A): significant tumour cell death
- cell activity after washout (CD137 [3]): maintain cell activity after washout
- pro-inflammatory cytokine (IL-2, IFNγ) secretion by T-cells [4]: secrete pro-inflammatory cytokines
- systemic elimination (plasma concentration after IV dosing) [5]: retain the property of rapid systemic elimination
